Results reported in US20230123334A1, “AMINO LIPID COMPOUND, PREPARATION METHOD THEREFOR, AND APPLICATION THEREOF” (SHENZHEN SHENXIN BIOTECHNOLOGY CO., LTD., priority 2020, published 2023).

tested on: HEK293 cells; test: Preliminary screening as DNA vectors, GFP transfection of HEK293 cells; type: cell-based; settings: HEK293 cells; lipid/DOPE liposome with 75 ng plasmid DNA (psin-EGFP-IRES-Puro); number of cells expressing GFP divided by total number of nuclei (Hoechst)
Procedure, shortened: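 HEK293 cells in DMEM/10% FBS transfected with 75 ng EGFP plasmid per well complexed with amino lipid/DOPE liposomes in pH 5.6 sodium acetate. Hoechst nuclear stain added 20-24 h post-transfection, then cells cultured another 20-24 h. Confocal imaging gives GFP-positive cells as % of total nuclei.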

SMILES | Absolute DNA transfection efficiency in HEK293 cells [%]
CCCCCCCCCCCCCCCCCCSc1nc(NCCN2CCOCC2)nc(SCCCCCCCCCCCCCCCCCC)n1 [Compound S18S18D2] | 0.0
CCCCCCCCCCCCCCCCCCSc1nc(NCCN2CCCC2)nc(SCCCCCCCCCCCCCCCCCC)n1 [Compound S18S18D3] | 0.1
CCCCCCCCCCCCCCCCCCSc1nc(NCCN2CCCCC2)nc(SCCCCCCCCCCCCCCCCCC)n1 [Compound S18S18D4] | 0.1
CCCCCCCCCCCCCCCCCCSc1nc(NCCN2CCN(C)CC2)nc(SCCCCCCCCCCCCCCCCCC)n1 [Compound S18S18D5] | 0.1
CCCCCCCCCCCCCCCCCCSc1nc(NCCCN(C)C)nc(SCCCCCCCCCCCCCCCCCC)n1 [Compound S18S18D6] | 0.2
CCCCCCCCCCCCCCCCCCSc1nc(NCCN(CC)CC)nc(SCCCCCCCCCCCCCCCCCC)n1 [Compound S18S18D7] | 0.2
CCCCCCCCCCCCCCCCCCSc1nc(NCCCN2CCOCC2)nc(SCCCCCCCCCCCCCCCCCC)n1 [Compound S18S18D8] | 0.0
CCCCCCCCCCCCCCCCCCSc1nc(NCCCN2CCN(C)CC2)nc(SCCCCCCCCCCCCCCCCCC)n1 [Compound S18S18D9] | 0.9
CCCCCCCCCCCCCCCCCCSc1nc(NCC2CCN(C)CC2)nc(SCCCCCCCCCCCCCCCCCC)n1 [Compound S18S18D10] | 0.0
CCCCCCCCCCCCN(CCCCCCCCCCCC)c1nc(NCCCCCC)nc(NCCN(C)C)n1 [N6^2N12D1] | 0.6
CCCCCCCCCCCCN(CCCCCCCCCCCC)c1nc(NCCCCCC)nc(NCCN2CCOCC2)n1 [N6^2N12D2] | 0.2
CCCCCCCCCCCCN(CCCCCCCCCCCC)c1nc(NCCCCCC)nc(NCCN2CCCC2)n1 [N6^2N12D3] | 0.4
CCCCCCCCCCCCN(CCCCCCCCCCCC)c1nc(NCCCCCC)nc(NCCN2CCCCC2)n1 [N6^2N12D4] | 0.2
CCCCCCCCCCCCN(CCCCCCCCCCCC)c1nc(NCCCCCC)nc(NCCN2CCN(C)CC2)n1 [N6^2N12D5] | 0.2
CCCCCCCCCCCCN(CCCCCCCCCCCC)c1nc(NCCCCCC)nc(NCCCN(C)C)n1 [N6^2N12D6] | 0.4
CCCCCCCCCCCCN(CCCCCCCCCCCC)c1nc(NCCCCCC)nc(NCCN(CC)CC)n1 [N6^2N12D7] | 0.1

SMILES | Absolute DNA transfection efficiency in HEK293 cells [%]
CCCCCCCCCCCCN(CCCCCCCCCCCC)c1nc(NCCCCCC)nc(NCCCN2CCOCC2)n1 [N6^2N12D8] | 0.0
CCCCCCCCCCCCN(CCCCCCCCCCCC)c1nc(NCCCCCC)nc(NCCCN2CCN(C)CC2)n1 [N6^2N12D9] | 0.0
CCCCCCCCCCCCN(CCCCCCCCCCCC)c1nc(NCCCCCC)nc(NCC2CCN(C)CC2)n1 [N6^2N12D10] | 0.4
CCCCCCCCCCCCN(CCCCCCCCCCCC)c1nc(NCCCCCCC)nc(NCCN(C)C)n1 [N7^2N12D1] | 3.6
CCCCCCCCCCCCN(CCCCCCCCCCCC)c1nc(NCCCCCCC)nc(NCCN2CCOCC2)n1 [N7^2N12D2] | 1.7
CCCCCCCCCCCCN(CCCCCCCCCCCC)c1nc(NCCCCCCC)nc(NCCN2CCCC2)n1 [N7^2N12D3] | 2.5
CCCCCCCCCCCCN(CCCCCCCCCCCC)c1nc(NCCCCCCC)nc(NCCN2CCCCC2)n1 [N7^2N12D4] | 1.2
CCCCCCCCCCCCN(CCCCCCCCCCCC)c1nc(NCCCCCCC)nc(NCCN2CCN(C)CC2)n1 [N7^2N12D5] | 0.9
CCCCCCCCCCCCN(CCCCCCCCCCCC)c1nc(NCCCCCCC)nc(NCCCN(C)C)n1 [N7^2N12D6] | 0.7
CCCCCCCCCCCCN(CCCCCCCCCCCC)c1nc(NCCCCCCC)nc(NCCN(CC)CC)n1 [N7^2N12D7] | 0.6
CCCCCCCCCCCCN(CCCCCCCCCCCC)c1nc(NCCCCCCC)nc(NCCCN2CCOCC2)n1 [N7^2N12D8] | 1.6
CCCCCCCCCCCCN(CCCCCCCCCCCC)c1nc(NCCCCCCC)nc(NCCCN2CCN(C)CC2)n1 [N7^2N12D9] | 1.9
CCCCCCCCCCCCN(CCCCCCCCCCCC)c1nc(NCCCCCCC)nc(NCC2CCN(C)CC2)n1 [N7^2N12D10] | 1.4
CCCCCCCCCCCCN(CCCCCCCCCCCC)c1nc(NCCCCCCCC)nc(NCCN(C)C)n1 [N8^2N12D1] | 0.0
CCCCCCCCCCCCN(CCCCCCCCCCCC)c1nc(NCCCCCCCC)nc(NCCN2CCOCC2)n1 [N8^2N12D2] | 0.1

tested on: HEK293 cells; test: Preliminary screening as mRNA vectors, EGFP mRNA transfection of HEK293 cells; type: cell-based; settings: HEK293 cells, 96-well plates, EGFP mRNA 50 ng per well; percentage of GFP fluorescent cells relative to total number of cells (Hoechst)
Procedure, shortened: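 HEK293 cells in DMEM plus 10% FBS transfected in 96-well format with 50 ng EGFP mRNA per well; Lipofectamine2000 served as positive control. Read-out is the percentage of GFP-fluorescent cells among total cells, counted by Hoechst nuclear stain.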

SMILES | Absolute mRNA transfection efficiency in HEK293 cells [%]
CCCCCCCCCCCCCCCCCCSc1nc(NCCN2CCOCC2)nc(SCCCCCCCCCCCCCCCCCC)n1 [Compound S18S18D2] | 0.1
CCCCCCCCCCCCCCCCCCSc1nc(NCCN2CCCC2)nc(SCCCCCCCCCCCCCCCCCC)n1 [Compound S18S18D3] | 0.1
CCCCCCCCCCCCCCCCCCSc1nc(NCCN2CCCCC2)nc(SCCCCCCCCCCCCCCCCCC)n1 [Compound S18S18D4] | 0.1
CCCCCCCCCCCCCCCCCCSc1nc(NCCN2CCN(C)CC2)nc(SCCCCCCCCCCCCCCCCCC)n1 [Compound S18S18D5] | 0.1
CCCCCCCCCCCCCCCCCCSc1nc(NCCCN(C)C)nc(SCCCCCCCCCCCCCCCCCC)n1 [Compound S18S18D6] | 0.5
CCCCCCCCCCCCCCCCCCSc1nc(NCCN(CC)CC)nc(SCCCCCCCCCCCCCCCCCC)n1 [Compound S18S18D7] | 0.0
CCCCCCCCCCCCCCCCCCSc1nc(NCCCN2CCOCC2)nc(SCCCCCCCCCCCCCCCCCC)n1 [Compound S18S18D8] | 0.0
CCCCCCCCCCCCCCCCCCSc1nc(NCCCN2CCN(C)CC2)nc(SCCCCCCCCCCCCCCCCCC)n1 [Compound S18S18D9] | 0.1
CCCCCCCCCCCCCCCCCCSc1nc(NCC2CCN(C)CC2)nc(SCCCCCCCCCCCCCCCCCC)n1 [Compound S18S18D10] | 0.0
CCCCCCCCCCCCN(CCCCCCCCCCCC)c1nc(NCCCCCC)nc(NCCN(C)C)n1 [N6^2N12D1] | 0.0
CCCCCCCCCCCCN(CCCCCCCCCCCC)c1nc(NCCCCCC)nc(NCCN2CCOCC2)n1 [N6^2N12D2] | 0.0
CCCCCCCCCCCCN(CCCCCCCCCCCC)c1nc(NCCCCCC)nc(NCCN2CCCC2)n1 [N6^2N12D3] | 0.1
CCCCCCCCCCCCN(CCCCCCCCCCCC)c1nc(NCCCCCC)nc(NCCN2CCCCC2)n1 [N6^2N12D4] | 0.0
CCCCCCCCCCCCN(CCCCCCCCCCCC)c1nc(NCCCCCC)nc(NCCN2CCN(C)CC2)n1 [N6^2N12D5] | 0.0
CCCCCCCCCCCCN(CCCCCCCCCCCC)c1nc(NCCCCCC)nc(NCCCN(C)C)n1 [N6^2N12D6] | 0.1
CCCCCCCCCCCCN(CCCCCCCCCCCC)c1nc(NCCCCCC)nc(NCCN(CC)CC)n1 [N6^2N12D7] | 0.3

SMILES | Absolute mRNA transfection efficiency in HEK293 cells [%]
CCCCCCCCCCCCN(CCCCCCCCCCCC)c1nc(NCCCCCC)nc(NCCCN2CCOCC2)n1 [N6^2N12D8] | 0.0
CCCCCCCCCCCCN(CCCCCCCCCCCC)c1nc(NCCCCCC)nc(NCCCN2CCN(C)CC2)n1 [N6^2N12D9] | 0.0
CCCCCCCCCCCCN(CCCCCCCCCCCC)c1nc(NCCCCCC)nc(NCC2CCN(C)CC2)n1 [N6^2N12D10] | 0.0
CCCCCCCCCCCCN(CCCCCCCCCCCC)c1nc(NCCCCCCC)nc(NCCN(C)C)n1 [N7^2N12D1] | 3.5
CCCCCCCCCCCCN(CCCCCCCCCCCC)c1nc(NCCCCCCC)nc(NCCN2CCOCC2)n1 [N7^2N12D2] | 0.9
CCCCCCCCCCCCN(CCCCCCCCCCCC)c1nc(NCCCCCCC)nc(NCCN2CCCC2)n1 [N7^2N12D3] | 6.8
CCCCCCCCCCCCN(CCCCCCCCCCCC)c1nc(NCCCCCCC)nc(NCCN2CCCCC2)n1 [N7^2N12D4] | 3.7
CCCCCCCCCCCCN(CCCCCCCCCCCC)c1nc(NCCCCCCC)nc(NCCN2CCN(C)CC2)n1 [N7^2N12D5] | 2.4
CCCCCCCCCCCCN(CCCCCCCCCCCC)c1nc(NCCCCCCC)nc(NCCCN(C)C)n1 [N7^2N12D6] | 4.8
CCCCCCCCCCCCN(CCCCCCCCCCCC)c1nc(NCCCCCCC)nc(NCCN(CC)CC)n1 [N7^2N12D7] | 1.9
CCCCCCCCCCCCN(CCCCCCCCCCCC)c1nc(NCCCCCCC)nc(NCCCN2CCOCC2)n1 [N7^2N12D8] | 2.7
CCCCCCCCCCCCN(CCCCCCCCCCCC)c1nc(NCCCCCCC)nc(NCCCN2CCN(C)CC2)n1 [N7^2N12D9] | 5.4
CCCCCCCCCCCCN(CCCCCCCCCCCC)c1nc(NCCCCCCC)nc(NCC2CCN(C)CC2)n1 [N7^2N12D10] | 2.0
CCCCCCCCCCCCN(CCCCCCCCCCCC)c1nc(NCCCCCCCC)nc(NCCN(C)C)n1 [N8^2N12D1] | 0.2
CCCCCCCCCCCCN(CCCCCCCCCCCC)c1nc(NCCCCCCCC)nc(NCCN2CCOCC2)n1 [N8^2N12D2] | 1.4
